How the values were obtained:
Assay type in all cases: in vivo
Amaranthus retroflexus [1] = experiment: Pre-emergence herbicidal action, AMARE; conditions: dosage 320 g/ha, scored visually after 3 weeks vs untreated controls
Summary of the method: (§1)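 Percent herbicidal activity rated by eye 3 weeks after pre-emergence soil-surface application, compared with untreated pots. Seeds sat under sandy loam; sprays carried 0.2% wetting agent.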

Matricaria inodora = experiment: Pre-emergence herbicidal action, MATIN; conditions: dosage 320 g/ha, scored visually after 3 weeks vs untreated controls
Summary of the method: as §1

Cyperus serotinus = experiment: Pre-emergence herbicidal action, CYPES; conditions: dosage 320 g/ha, scored visually after 3 weeks vs untreated controls
Summary of the method: as §1

Setaria viridis [2] = experiment: Pre-emergence herbicidal action, SETVI; conditions: dosage 320 g/ha, scored visually after 3 weeks vs untreated controls
Summary of the method: as §1

Viola tricolor [3] = experiment: Post-emergence herbicidal action, VIOTR; conditions: 80 g/ha, Table D
Summary of the method: (§2)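 Greenhouse-grown weeds in sandy loam, treated at the one-leaf stage 2 to 3 weeks after sowing with WP or EC formulations sprayed as aqueous suspension/emulsion at 600 to […] water plus 0.2% wetting agent. Visual scoring after about 3 weeks versus untreated controls, 0% (like control) to 100% (plants dead).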

Alopecurus myosuroides [4] = experiment: Post-emergence herbicidal action, ALOMY; conditions: 80 g/ha, Table C
Summary of the method: as §2

Pharbitis purpureum = experiment: Post-emergence herbicidal action, PHBPU; conditions: 80 g/ha, Table D
Summary of the method: as §2

Abutilon theophrasti [5] = experiment: Post-emergence herbicidal action, ABUTH; conditions: 80 g/ha, Table D
Summary of the method: as §2

Avena fatua [6] = experiment: Pre-emergence herbicidal action, AVEFA; conditions: dosage 320 g/ha, scored visually after 3 weeks vs untreated controls
Summary of the method: as §1

Stellaria media [7] = experiment: Pre-emergence herbicidal action, STEME; conditions: dosage 320 g/ha, scored visually after 3 weeks vs untreated controls
Summary of the method: as §1

Setaria viridis [8] = experiment: Post-emergence herbicidal action, SETVI; conditions: 80 g/ha, Table C
Summary of the method: as §2

Viola tricolor [9] = experiment: Pre-emergence herbicidal action, VIOTR; conditions: dosage 320 g/ha, scored visually after 3 weeks vs untreated controls
Summary of the method: as §1

ECHCG = experiment: Post-emergence herbicidal action, ECHCG; conditions: 80 g/ha, Table C
Summary of the method: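 Weed and crop plants grown in sandy loam in the greenhouse, treated at the one-leaf stage 2–3 weeks after sowing. Damage scored visually after about 3 weeks vs untreated controls (0% = control, 100% = dead).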

Abutilon theophrasti [10] = experiment: Pre-emergence herbicidal action, ABUTH; conditions: dosage 320 g/ha, scored visually after 3 weeks vs untreated controls
Summary of the method: as §1

Avena fatua [11] = experiment: Post-emergence herbicidal action, AVEFA; conditions: 80 g/ha, Table C
Summary of the method: as §2

Stellaria media [12] = experiment: Post-emergence herbicidal action, STEME; conditions: 80 g/ha, Table D
Summary of the method: as §2

Amaranthus retroflexus [13] = experiment: Post-emergence herbicidal action, AMARE; conditions: 80 g/ha, Table D
Summary of the method: as §2

Alopecurus myosuroides [14] = experiment: Pre-emergence herbicidal action, ALOMY; conditions: dosage 320 g/ha, scored visually after 3 weeks vs untreated controls
Summary of the method: as §1

CC[S+]([O-])c1c(C(F)F)ccc(C(=O)Nc2nnc(C)o2)c1I (stereo not drawn) [Example 7-75]
herbicidal activity AMARE (Amaranthus retroflexus [1]): 100%
herbicidal activity MATIN (Matricaria inodora): 100%
herbicidal activity CYPES (Cyperus serotinus): 100%
herbicidal activity SETVI (Setaria viridis [2]): 100%
herbicidal activity VIOTR (Viola tricolor [3]): 100%
herbicidal activity ALOMY (Alopecurus myosuroides [4]): 80%
Herbicidal activity PHBPU (Pharbitis purpureum): 80%
herbicidal activity ABUTH (Abutilon theophrasti [5]): 90%
herbicidal activity AVEFA (Avena fatua [6]): 100%
Herbicidal activity STEME (Stellaria media [7]): 100%
herbicidal activity SETVI (Setaria viridis [8]): 90%
herbicidal activity VIOTR (Viola tricolor [9]): 100%
Herbicidal activity ECHCG (ECHCG): 100%
herbicidal activity ABUTH (Abutilon theophrasti [10]): 100%
herbicidal activity AVEFA (Avena fatua [11]): 100%
Herbicidal activity STEME (Stellaria media [12]): 80%
herbicidal activity AMARE (Amaranthus retroflexus [13]): 100%
herbicidal activity ALOMY (Alopecurus myosuroides [14]): 100%

CSc1c(C(F)F)ccc(C(=O)Nc2nnnn2C)c1Br [Example 1-61]
herbicidal activity AMARE (Amaranthus retroflexus [1]): 100%
herbicidal activity MATIN (Matricaria inodora): 100%
herbicidal activity CYPES (Cyperus serotinus): 100%
herbicidal activity SETVI (Setaria viridis [2]): 100%
herbicidal activity VIOTR (Viola tricolor [3]): 100%
herbicidal activity ALOMY (Alopecurus myosuroides [4]): 90%
Herbicidal activity PHBPU (Pharbitis purpureum): 100%
herbicidal activity ABUTH (Abutilon theophrasti [5]): 100%
herbicidal activity AVEFA (Avena fatua [6]): 100%
Herbicidal activity STEME (Stellaria media [7]): 100%
herbicidal activity SETVI (Setaria viridis [8]): 90%
herbicidal activity VIOTR (Viola tricolor [9]): 100%
Herbicidal activity ECHCG (ECHCG): 90%
herbicidal activity ABUTH (Abutilon theophrasti [10]): 100%
herbicidal activity AVEFA (Avena fatua [11]): 100%
Herbicidal activity STEME (Stellaria media [12]): 100%
herbicidal activity AMARE (Amaranthus retroflexus [13]): 90%
herbicidal activity ALOMY (Alopecurus myosuroides [14]): 100%

Cn1nnnc1NC(=O)c1ccc(C(F)F)c(S(C)(=O)=O)c1Br [Example 1-63]
herbicidal activity AMARE (Amaranthus retroflexus [1]): 100%
herbicidal activity MATIN (Matricaria inodora): 100%
herbicidal activity CYPES (Cyperus serotinus): 100%
herbicidal activity SETVI (Setaria viridis [2]): 100%
herbicidal activity VIOTR (Viola tricolor [3]): 100%
herbicidal activity ALOMY (Alopecurus myosuroides [4]): 90%
Herbicidal activity PHBPU (Pharbitis purpureum): 100%
herbicidal activity ABUTH (Abutilon theophrasti [5]): 100%
herbicidal activity AVEFA (Avena fatua [6]): 100%
Herbicidal activity STEME (Stellaria media [7]): 100%
herbicidal activity SETVI (Setaria viridis [8]): 100%
herbicidal activity VIOTR (Viola tricolor [9]): 100%
Herbicidal activity ECHCG (ECHCG): 90%
herbicidal activity ABUTH (Abutilon theophrasti [10]): 100%
herbicidal activity AVEFA (Avena fatua [11]): 100%
Herbicidal activity STEME (Stellaria media [12]): 100%
herbicidal activity AMARE (Amaranthus retroflexus [13]): 100%
herbicidal activity ALOMY (Alopecurus myosuroides [14]): 100%

CCS(=O)(=O)c1c(C(F)F)ccc(C(=O)Nc2nnnn2C)c1Cl [Example 1-54]
herbicidal activity AMARE (Amaranthus retroflexus [1]): 100%
herbicidal activity MATIN (Matricaria inodora): 100%
herbicidal activity CYPES (Cyperus serotinus): 100%
herbicidal activity SETVI (Setaria viridis [2]): 100%
herbicidal activity VIOTR (Viola tricolor [3]): 100%
herbicidal activity ALOMY (Alopecurus myosuroides [4]): 90%
Herbicidal activity PHBPU (Pharbitis purpureum): 100%
herbicidal activity ABUTH (Abutilon theophrasti [5]): 100%
herbicidal activity AVEFA (Avena fatua [6]): 100%
Herbicidal activity STEME (Stellaria media [7]): 100%
herbicidal activity SETVI (Setaria viridis [8]): 100%
herbicidal activity VIOTR (Viola tricolor [9]): 100%
Herbicidal activity ECHCG (ECHCG): 90%
herbicidal activity ABUTH (Abutilon theophrasti [10]): 100%
herbicidal activity AVEFA (Avena fatua [11]): 100%
Herbicidal activity STEME (Stellaria media [12]): 100%
herbicidal activity AMARE (Amaranthus retroflexus [13]): 100%
herbicidal activity ALOMY (Alopecurus myosuroides [14]): 100%

CCS(=O)(=O)c1c(C(F)F)ccc(C(=O)Nc2ncnn2C)c1Cl [Example 4-54]
herbicidal activity AMARE (Amaranthus retroflexus [1]): 100%
herbicidal activity MATIN (Matricaria inodora): 100%
herbicidal activity CYPES (Cyperus serotinus): 80%
herbicidal activity SETVI (Setaria viridis [2]): 90%
herbicidal activity VIOTR (Viola tricolor [3]): 100%
herbicidal activity ALOMY (Alopecurus myosuroides [4]): 90%
Herbicidal activity PHBPU (Pharbitis purpureum): 100%
herbicidal activity ABUTH (Abutilon theophrasti [5]): 90%
herbicidal activity AVEFA (Avena fatua [6]): 80%
Herbicidal activity STEME (Stellaria media [7]): 100%
herbicidal activity SETVI (Setaria viridis [8]): 100%
herbicidal activity VIOTR (Viola tricolor [9]): 100%
Herbicidal activity ECHCG (ECHCG): 100%
herbicidal activity ABUTH (Abutilon theophrasti [10]): 100%
herbicidal activity AVEFA (Avena fatua [11]): 100%
Herbicidal activity STEME (Stellaria media [12]): 100%
herbicidal activity AMARE (Amaranthus retroflexus [13]): 90%
herbicidal activity ALOMY (Alopecurus myosuroides [14]): 90%

From patent US20230183193A1, “4-DIFLUOROMETHYL BENZOYL AMIDES WITH HERBICIDAL ACTION” (BAYER CROPSCIENCE AKTIENGESELLSCHAFT, priority 2017, published 2023)
